# Source: patent US6528494B2 (priority 1996, dated 2003)
# Where a name gives a salt, the structure may show the parent alone.
# What was measured:
# Type in all cases: cell-based
# [1] = molecular target: adenosine 2a receptor (Homo sapiens, UniProt P29274); test: Agonist activity against adenosine 2a receptor (CHO cells, cAMP/SPAP reporter); details: CHO cells transfected with human receptor; basal cAMP via SPAP; mean of all the versions tested
# Experimental: (§1) (1) Agonist activity against adenosine 2a, adenosine 1 and adenosine 3 receptor subtypes.
# (§2) The effect of test compounds was determined by their effects on basal levels of cAMP (A2a) or on forskolin-enhanced cAMP (A1 and A3) as reflected by changes in levels of SPAP.
# [2] = molecular target: T1, adenosine 1 receptor (Homo sapiens, UniProt P30542); test: Agonist activity against adenosine 1 receptor (CHO cells, forskolin-enhanced cAMP/SPAP reporter); details: CHO cells transfected with human receptor; forskolin-enhanced cAMP via SPAP; mean of all the versions tested
# T1 sequence (P30542 1-326): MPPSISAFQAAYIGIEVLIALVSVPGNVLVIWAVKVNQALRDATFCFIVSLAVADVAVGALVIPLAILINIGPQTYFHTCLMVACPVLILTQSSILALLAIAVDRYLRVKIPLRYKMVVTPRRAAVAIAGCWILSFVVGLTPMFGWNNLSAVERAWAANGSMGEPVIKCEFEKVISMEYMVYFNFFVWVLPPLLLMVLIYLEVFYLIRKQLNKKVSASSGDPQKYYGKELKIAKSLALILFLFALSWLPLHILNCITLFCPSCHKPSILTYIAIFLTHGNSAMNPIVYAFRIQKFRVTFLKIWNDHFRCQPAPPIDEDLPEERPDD
# Experimental: as §1, §2
# [3] = molecular target: T2, adenosine 3 receptor (Homo sapiens, UniProt P0DMS8); test: Agonist activity against adenosine 3 receptor (CHO cells, forskolin-enhanced cAMP/SPAP reporter); details: CHO cells transfected with human receptor; forskolin-enhanced cAMP via SPAP; mean of all the versions tested
# T2 sequence (P0DMS8 1-318): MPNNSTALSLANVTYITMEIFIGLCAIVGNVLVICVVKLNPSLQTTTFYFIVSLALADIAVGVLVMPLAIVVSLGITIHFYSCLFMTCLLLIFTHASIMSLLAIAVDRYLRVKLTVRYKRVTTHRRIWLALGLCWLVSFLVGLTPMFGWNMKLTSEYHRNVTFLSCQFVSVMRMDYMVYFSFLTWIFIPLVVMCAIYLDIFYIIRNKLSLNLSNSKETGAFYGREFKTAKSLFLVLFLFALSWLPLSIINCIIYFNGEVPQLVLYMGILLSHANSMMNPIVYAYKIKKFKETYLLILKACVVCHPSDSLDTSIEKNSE
# Experimental: as §1, §2
# Sequence of adenosine 2a receptor (P29274 whole entry): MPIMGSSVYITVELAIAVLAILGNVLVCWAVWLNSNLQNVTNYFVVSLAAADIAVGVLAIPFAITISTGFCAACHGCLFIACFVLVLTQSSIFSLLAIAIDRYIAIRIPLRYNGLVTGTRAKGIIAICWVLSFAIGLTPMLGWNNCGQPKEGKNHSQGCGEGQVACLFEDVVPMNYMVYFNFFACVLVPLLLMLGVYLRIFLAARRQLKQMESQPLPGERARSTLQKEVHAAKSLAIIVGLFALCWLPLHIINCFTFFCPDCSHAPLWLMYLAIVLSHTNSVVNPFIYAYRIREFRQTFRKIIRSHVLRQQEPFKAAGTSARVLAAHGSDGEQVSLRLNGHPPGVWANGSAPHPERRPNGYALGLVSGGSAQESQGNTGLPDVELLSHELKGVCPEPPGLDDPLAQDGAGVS
SMILES,A2a EC50 as a ratio of that of NECA [1],A1 EC50 as a ratio of that of NECA [2],A3 EC50 as a ratio of that of NECA [3]
"Cn1nnc(C2OC(n3cnc4c(NCC(c5ccccc5)c5ccccc5)nc(NC(CO)Cc5ccccc5)nc43)C(O)C2O)n1 [Example 95, (2R,3R,4S,5R)-2-[6-(2,2-Diphenyl-ethylamino)-2-(1S-hydroxymethyl-2-phenyl-ethylamino)-purin-9-yl]-5-(2-methyl-2H-tetrazol-5-yl)-tetrahydro-furan-3,4-diol Formate]",2.10,4687.00,>153
"Cn1nnc([C@H]2O[C@@H](n3cnc4c(NCC(c5ccccc5)c5ccccc5)nc(N[C@@H]5CCC[C@H]5O)nc43)[C@H](O)[C@@H]2O)n1.O=CO [Example 96, (2R,3R,4S,5R)-2-[6-(2,2-Diphenyl-ethylamino)-2-(2R-hydroxy-(R)-cyclopentylamino)-purin-9-yl]-5-(2-methyl-2H-tetrazol-5-yl)-tetrahydro-furan-3,4-diol Formate]",2.14,5177.00,>153
Cn1nnc(C2OC(n3cnc4c(NCC(c5ccccc5)c5ccccc5)nc(NCCc5ccccn5)nc43)C(O)C2O)n1.O=CO.O=CO (stereo not drawn) [Example 97],2.34,1413.00,>240
Cn1nnc(C2OC(n3cnc4c(NCC(c5ccccc5)c5ccccc5)nc(NCCN5CCOCC5)nc43)C(O)C2O)n1.O=CO.O=CO (stereo not drawn) [Example 98],2.28,126.50,>160
"CC(C)C(CO)Nc1nc(NCC(c2ccccc2)c2ccccc2)c2ncn(C3OC(c4nnn(C)n4)C(O)C3O)c2n1 [Example 99, (2R,3R,4S,5R)-2-[6-(2,2-Diphenyl-ethylamino)-2-(1S-hydroxymethyl-2-methyl-propylamino)-purin-9-yl]-5-(2-methyl-2H-tetrazol-5-yl)-tetrahydro-furan-3,4-diol Formate]",4.82,87.00,>130
"CCn1nnc(C2OC(n3cnc4c(NCc5cccc(I)c5)nc(NC5CCC(N)CC5)nc43)C(O)C2O)n1.O=CO.O=CO [Example 100, (2R,3R,4S,5R)-2-[2-(trans-4-Amino-cyclohexylamino)-6-(3-iodo-benzylamino)-purin-9-yl]-5-(2-ethyl-2H-tetrazol-5-yl)-tetrahydro-furan-3,4-diol Diformate]",5.71,292.70,>127
"CCn1nnc(C2OC(n3cnc4c(NC5CCCC5)nc(NC5CCC(N)CC5)nc43)C(O)C2O)n1.O=CO.O=CO [Example 101, (2R,3R,4S,5R)-2-[2-(trans-4-Amino-cyclohexylamino)-6-cyclopentylamino-purin-9-yl]-5-(2-ethyl-2H-tetrazol-5-yl)-tetrahydro-furan-3,4-diol bis(Formate)]",1.51,39.00,>195
"CCn1nnc([C@H]2O[C@@H](n3cnc4c(NCC(c5ccccc5)c5ccccc5)nc(NC5CCOCC5)nc43)[C@H](O)[C@@H]2O)n1.O=C(O)C(F)(F)F [Example 113, (2R, 3R,4S, 5R)-2-[6-(2,2-Diphenyl-ethylamino)-2-(tetrahydro-pyran-4-ylamino)-purin-9-yl]-5-(2-ethyl-2H-tetrazol-5-yl)-tetrahydro-furan-3,4-diol Trifluoroacetate]",0.72,184.4,>297.0
CCn1nnc([C@H]2O[C@@H](n3cnc4c(NCC(c5ccccc5)c5ccccc5)nc(NC5CCSCC5)nc43)[C@H](O)[C@@H]2O)n1.O=C(O)C(F)(F)F [Example 114],0.58,242.2,>2972.0

# Continued, values first:
A2a EC50 as a ratio of that of NECA [1],A1 EC50 as a ratio of that of NECA [2],A3 EC50 as a ratio of that of NECA [3],SMILES
6.36,321.00,>195,"CCn1nnc(C2OC(n3cnc4c(NCCc5ccccc5)nc(NCCN5CCCCC5)nc43)C(O)C2O)n1.O=CO.O=CO [Example 102, (2R,3S,4R,5R)-2-(2-Ethyl-2H-tetrazol-5-yl)-5-[6-phenethylamino-2-(2-piperidin-1-yl-ethylamino)-purin-9-yl]-tetrahydro-furan-3,4-diol Diformate]"
3.91,48.50,>184,CCn1nnc(C2OC(n3cnc4c(NC(CO)Cc5ccccc5)nc(NCCN5CCCCC5)nc43)C(O)C2O)n1 (stereo not drawn) [Example 103]
4.04,113.40,>235,"CCn1nnc(C2OC(n3cnc4c(NC5CCCC5)nc(NCCN5CCCCC5)nc43)C(O)C2O)n1.O=CO.O=CO [Example 104, (2R,3R,4S,5R)-2-[6-Cyclopentylamino-2-(2-piperidin-1-yl-ethylamino)-purin-9-yl]-5-(2-ethyl-2H-tetrazol-5-yl)-tetrahydro-furan-3,4-diol bis(Formate)]"
1.07,>2999.00,>233,"Cn1nnc(C2OC(n3cnc4c(NCc5cccc(I)c5)nc(NC5CCC(N)CC5)nc43)C(O)C2O)n1.O=CO.O=CO [Example 105, (2R,3R,4S,5R)-2-[2-(trans-4-Amino-cyclohexylamino)-6-(3-iodo-benzylamino)-purin-9-yl]-5-(2-methyl-2H-tetrazol-5-yl)-tetrahydro-furan-3,4-diol bis(Formate)]"
1.12,100.30,>201,"Cn1nnc(C2OC(n3cnc4c(NCc5cccc(I)c5)nc(NCCN5CCCCC5)nc43)C(O)C2O)n1 [Example 106, (2R,3R,4S,5R)-2-[6-(3-lodo-benzylamino)-2-(2-piperidin-1-yl-ethylamino)-purin-9-yl]-5-(2-methyl-2H-tetrazol-5-yl)-tetrahydro-furan-3,4-diol bis(Formate)]"
1.27,89.10,>233,"Cn1nnc(C2OC(n3cnc4c(NC(CO)Cc5ccccc5)nc(NCCN5CCCCC5)nc43)C(O)C2O)n1 [Example 107, (2R,3R,4S,5R)-2-[6-(1S-Hydroxymethyl-2-phenyl-ethylamino)-2-(2-piperidin-1-yl-ethylamino)-purin-9-yl]-5-(2-methyl-2H-tetrazol-5-yl)-tetrahydro-furan-3,4-diol bis(Formate)]"
2.25,111.30,>201,"Cn1nnc(C2OC(n3cnc4c(NCc5cccc(I)c5)nc(NCCN5CCCC5)nc43)C(O)C2O)n1.O=CO.O=CO [Example 108, (2R,3R,4S,5R)-2-[6-(3-Iodo-benzylamino)-2-(2-pyrrolidin-1-yl-ethylamino)-purin-9-yl]-5-(2-methyl-2H-tetrazol-5-yl)-tetrahydro-furan-3,4-diol bis(Formate)]"
8.54,17.70,>446,"Cn1nnc(C2OC(n3cnc4c(NCc5cccc(I)c5)nc(NC(CO)Cc5ccccc5)nc43)C(O)C2O)n1 [Example 109, (2R,3R,4S,5R)-2-[2-(1S-Hydroxymethyl-2-phenyl-ethylamino)-6-(3-iodo-benzylamino)-purin-9-yl]-5-(2-methyl-2H-tetrazol-5-yl)-tetrahydro-furan-3,4-diol Formate]"
5.00,3.13,>315,"Cn1nnc(C2OC(n3cnc4c(NC(CO)Cc5ccccc5)nc(NC(CO)Cc5ccccc5)nc43)C(O)C2O)n1 [Example 110, (2R,3R,4S,5R)-2-[2,6-Bis-(1S-Hydroxymethyl-2-phenyl-ethylamino)-purin-9-yl]-5-(2-methyl-2H-tetrazol-5-yl)-tetrahydro-furan-3,4-diol Formate]"
2.92,298.50,>315,"Cn1nnc(C2OC(n3cnc4c(NC(CO)Cc5ccccc5)nc(NCCN5CCCC5)nc43)C(O)C2O)n1 [Example 111, (2R,3R,4S,5R)-2-[6-(1S-Hydroxymethyl-2-phenyl-ethylamino)-2-(2-pyrrolidin-1-yl-ethylamino)-purin-9-yl]-5-(2-methyl-2H-tetrazol-5-yl)-tetrahydro-furan-3,4-diol bis(Formate)]"
